Like-named read-outs stand apart in the source and are kept apart here. Marks after values point to notes of the source that are not given here.
Tests used:
[1] = test system: α1β3γ2L GABAA receptors, substituted cysteine at α1L232 (α1– M1); design: key: +: Mutant-function studies are deemed positive when bulky mutations (mostly tryptophans) at the site significantly reduce positive modulation by anesthetics; -: Negative results are indicated by “–“ symbols; conditions: previously reported; cited from earlier work
[2] = molecular target: T1, α1S270Cβ3γ2L GABAA receptors (Homo sapiens, UniProt P14867+P18507+P28472, S297C); assay: Drug protection from pCMBS modification (SCAMP); assay type: cell-based; design: key: +: SCAMP is Substituted Cysteine Modification and Protection and is positive when adding anesthetic to cysteine modifier significantly reduces persistent post-exposure effects due to covalent modification; -: Negative results are indicated by “–“ symbols; conditions: results of this study (*)
T1 construct: expressed in transfected cells; host or cells: Xenopus oocytes injected with capped mRNA, 1α:1β:5γ
T1 sequence (P14867 28-456 S297C): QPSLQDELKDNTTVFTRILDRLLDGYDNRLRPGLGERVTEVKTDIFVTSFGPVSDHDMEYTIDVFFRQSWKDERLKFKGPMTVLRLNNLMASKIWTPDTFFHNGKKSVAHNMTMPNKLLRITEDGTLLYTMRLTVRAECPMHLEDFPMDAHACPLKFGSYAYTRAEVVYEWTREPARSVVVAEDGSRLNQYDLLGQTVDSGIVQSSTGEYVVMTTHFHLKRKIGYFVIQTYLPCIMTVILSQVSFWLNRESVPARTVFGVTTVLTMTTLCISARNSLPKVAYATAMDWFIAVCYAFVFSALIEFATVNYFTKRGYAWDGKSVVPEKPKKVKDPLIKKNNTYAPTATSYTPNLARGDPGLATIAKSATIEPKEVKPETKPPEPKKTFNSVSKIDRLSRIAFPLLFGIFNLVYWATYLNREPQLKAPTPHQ
T1 sequence (P28472 26-473): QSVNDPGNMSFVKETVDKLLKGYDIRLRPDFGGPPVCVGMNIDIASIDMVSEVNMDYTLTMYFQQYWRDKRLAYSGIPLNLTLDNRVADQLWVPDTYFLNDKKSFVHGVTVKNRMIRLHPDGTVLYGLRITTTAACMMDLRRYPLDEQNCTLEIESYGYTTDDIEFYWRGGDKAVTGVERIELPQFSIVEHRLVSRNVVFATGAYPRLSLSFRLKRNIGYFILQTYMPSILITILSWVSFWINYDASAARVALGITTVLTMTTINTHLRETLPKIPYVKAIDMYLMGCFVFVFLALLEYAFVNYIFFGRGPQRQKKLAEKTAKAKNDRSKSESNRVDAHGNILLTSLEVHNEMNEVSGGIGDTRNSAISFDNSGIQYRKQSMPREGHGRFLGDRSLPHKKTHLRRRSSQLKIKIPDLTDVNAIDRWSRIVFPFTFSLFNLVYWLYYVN
T1 sequence (P18507 40-475): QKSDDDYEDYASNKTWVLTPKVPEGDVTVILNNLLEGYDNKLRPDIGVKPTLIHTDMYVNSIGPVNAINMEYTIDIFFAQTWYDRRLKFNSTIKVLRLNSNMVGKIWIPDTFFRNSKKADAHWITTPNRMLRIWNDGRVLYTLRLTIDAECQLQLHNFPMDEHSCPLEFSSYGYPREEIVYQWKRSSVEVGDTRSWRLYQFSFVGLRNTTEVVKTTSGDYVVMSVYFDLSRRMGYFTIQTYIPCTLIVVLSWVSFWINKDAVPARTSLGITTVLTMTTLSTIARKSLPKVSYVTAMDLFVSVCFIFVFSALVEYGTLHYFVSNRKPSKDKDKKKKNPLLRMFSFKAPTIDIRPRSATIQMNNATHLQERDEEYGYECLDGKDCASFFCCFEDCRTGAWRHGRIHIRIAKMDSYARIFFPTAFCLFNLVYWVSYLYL
Description: (§1) Experiments were performed in ND-96 buffer at room temperature (20–22°C). Oocytes were placed in a low-volume (30µl) flow chamber and impaled with borosilicate microelectrodes filled with 3M KCl (resistance 0.5–3 MΩ) and voltage-clamped at −50 mV (model OC-725C; Warner Instruments, Hamden, CT, USA). Superfusate solutions in ND-96 were delivered at 2 ml/min from glass syringe reservoirs via computer-controlled valves (VC-8; Warner Instruments), a micro-manifold (ALA-VM8; ALA Scientific Instruments, Farmingdale, NY, USA), and PTFE tubing. Currents were digitized at 200 Hz on a computer running ClampEx v8.0 software (Molecular Devices, San Jose, CA, USA). Digitized traces were filtered with a 10-Hz low-pass Bessel function, leak corrected and analyzed for peak amplitude off-line using Clampfit v8 software (Molecular Devices).
(§2) Drug protection from pCMBS modification was assessed under pCMBS exposure conditions that produced approximately half of the maximal modification ratio for each mutant receptor, and a least a value of 3. This approach balanced the magnitude of functional modification signals (smaller with less pCMBS exposure) against the challenge of using a reversibly bound ligand to competitively block an irreversible covalent cysteine-modifying reaction. […] Each oocyte was used in a single SCAMP experiment. […] Etomidate was used as a positive control for anesthetic protection in α1M236C and β3M286C mutants and as a negative control in α1S270C, α1A291C, β3L231C, γ2S301C, γ2I242C, and γ2L246C mutants. R-mTFD-MPAB was used as a positive control in α1S270C, α1A291C, β3L231C, and γ2LS301C mutants and as a negative control in α1M236C and β3M286C mutants. For each cysteine mutant and protective drug combination, five oocytes were studied.
(§3) Non-linear least squares fits and statistical analyses were performed in Prism 10.4.0. (GraphPad Software, San Diego, CA, USA). […] Protection (steric inhibition of pCMBS modification) was inferred when anesthetics produced significant reductions in modification ratios relative to control (no anesthetic) values. The statistical significance threshold was p < 0.05.

[3] = molecular target: T2, α1β3γ2I242C GABAA receptors (Homo sapiens, UniProt P14867+P18507+P28472, I281C); design: key: +: Mutant-function studies are deemed positive when bulky mutations (mostly tryptophans) at the site significantly reduce positive modulation by anesthetics; -: Negative results are indicated by “–“ symbols; conditions: previously reported; cited from earlier work
T2 construct: expressed in transfected cells; host or cells: Xenopus oocytes injected with capped mRNAs mixed 1α:1β:5γ
T2 sequence (P14867 28-456): as the sequence (P14867 28-456 S297C) above, with C270S counted along it
T2 sequence (P28472 26-473): as the sequence (P28472 26-473) above
T2 sequence (P18507 40-475 I281C): as the sequence (P18507 40-475) above, with I242C counted along it

[4] = molecular target: T3, α1β3γ2L246C GABAA receptors (Homo sapiens, UniProt P14867+P18507+P28472, L285C); design: key: +: Mutant-function studies are deemed positive when bulky mutations (mostly tryptophans) at the site significantly reduce positive modulation by anesthetics; -: Negative results are indicated by “–“ symbols; conditions: previously reported; cited from earlier work
T3 construct: expressed in transfected cells; host or cells: Xenopus oocytes injected with capped mRNAs mixed 1α:1β:5γ
T3 sequence (P14867 28-456, stated change not applied): as the sequence (P14867 28-456 S297C) above, with C270S counted along it
T3 sequence (P28472 26-473): as the sequence (P28472 26-473) above
T3 sequence (P18507 40-475 L285C): as the sequence (P18507 40-475) above, with L246C counted along it

[5] = test system: α1β3γ2L GABAA receptors, substituted cysteine at α1L232 (α1– M1); design: key: +: SCAMP is Substituted Cysteine Modification and Protection and is positive when adding anesthetic to cysteine modifier significantly reduces persistent post-exposure effects due to covalent modification; -: Negative results are indicated by “–“ symbols; conditions: previously reported; cited from earlier work
[6] = molecular target: T3, α1β3γ2L246C GABAA receptors; assay: Drug protection from pCMBS modification (SCAMP); assay type: cell-based; design: key: +: SCAMP is Substituted Cysteine Modification and Protection and is positive when adding anesthetic to cysteine modifier significantly reduces persistent post-exposure effects due to covalent modification; -: Negative results are indicated by “–“ symbols; conditions: results of this study (*); etomidate cell also cites [9]
Description: as §1, §2, §3

In the case of `C=CCC1(c2cccc(C3(C(F)(F)F)N=N3)c2)C(=O)NC(=O)N(C)C1=O` (stereo not drawn) [R-mTFD-MPAB, R-5-allyl-1-methyl-5-(m-trifluoromethyl-diazirynylphenyl) barbituric acid], the “SCAMP result, α1– (M1) L232” value [1] is listed as “-^[9]”, the “SCAMP result, α1+ (M2, M3) S270” value [2] is listed as “+*” and the “SCAMP result, γ2– (M1) I242” value [3] is listed as “-^[9]”. The “SCAMP result, γ2– (M1) L246” value [4] was “-^[9]”.
For `CCOC(=O)c1cncn1[C@H](C)c1ccccc1` [etomidate, R-etomidate], the “SCAMP result, α1– (M1) L232” value [5] is listed as “+^[9]”.
For `CC(C)c1cc(C2(C(F)(F)F)N=N2)cc(C(C)C)c1CO` [pTFD-di-iPr-BnOH], the “SCAMP result, γ2– (M1) L246” value [6] was “+*”.
